From ChEMBL document CHEMBL1157850, “Synthesis, spectral characterization and bioassay of 3,3'-(1,4-phenylene)-bis[2-alkoxycarbonyl-alkyl)-2-thio-benzoxa-phosphinines]” (Eur J Med Chem, 2010) come the findings set out here.

≈ marks a conversion by molar mass, not a printed value. Calls of active or inactive are those of the source. The rule behind the calls is not given here.

Test [1] is filed under the species Rattus norvegicus. Kind of test: Antioxidant activity in Wistar albino rat assessed as inhibition of lipid peroxidation. The format is functional, organism-based.
Test [2] is filed under the species Rattus norvegicus. Kind of test: Antioxidant activity in Wistar albino rat assessed as inhibition of superoxide dismutase activity. The format is functional, organism-based.
For test [3], the species on record is Rattus norvegicus. Put plainly: Antioxidant activity in Wistar albino rat assessed as lipid peroxidation level. In kind it is functional, organism-based.
The species entered for test [4] is Rattus norvegicus. Put plainly: Antioxidant activity in Wistar albino rat assessed as catalase level. The format is functional.
The species named for test [5] is Rattus norvegicus. Kind of test: Antioxidant activity in Wistar albino rat assessed as inhibition of catalase activity. The format is functional, organism-based.
Test [6] is filed under the species Rattus norvegicus. Kind of test: Antioxidant activity in Wistar albino rat assessed as reduced glutathione level. The format is functional.
Test [7] is filed under the species Rattus norvegicus. Kind of test: Antioxidant activity in Wistar albino rat assessed as superoxide dismutase level. The format is functional.
The species entered for test [8] is Rattus norvegicus. Kind of test: Antioxidant activity in Wistar albino rat assessed as reduced glutathione activity. The format is functional, organism-based.
[9] abbreviates: Rattus norvegicus, Wistar albino, read-out: EC50.

For the compound `CCCC(NP1(=S)Oc2ccccc2CN1c1ccc(N2Cc3ccccc3OP2(=S)NC(CCC)C(=O)OC)cc1)C(=O)OC` (centres undefined), the EC50 worked out at 2.91 µg/mL (≈ 4.14 µM) in the test listed under Rattus norvegicus [1] (setting [9]), 2.31 µg/mL (≈ 3.29 µM) in the test filed under Rattus norvegicus [2] (setting [9]), 3.98 µg/mL (≈ 5.66 µM) in the test listed under Rattus norvegicus [5] (setting [9]) and 2.66 µg/mL (≈ 3.78 µM) in the test listed under Rattus norvegicus [8] (setting [9]). The Activity in the test listed under Rattus norvegicus [3] worked out at 68.2 µg/mL; in the test listed under Rattus norvegicus [4] it was 265.43 µg/mL; in the test filed under Rattus norvegicus [6], 5.02 µg/mL; in the test filed under Rattus norvegicus [7], 27.8 µg/mL.

Turning to `COC(=O)C(Cc1ccccc1)NP1(=S)Oc2ccccc2CN1c1ccc(N2Cc3ccccc3OP2(=S)NC(Cc2ccccc2)C(=O)OC)cc1` (centres undefined), the EC50 in the test listed under Rattus norvegicus [1] (setting [9]) stood at 2.1 µg/mL (≈ 2.63 µM); in the test filed under Rattus norvegicus [2] (setting [9]), 1.98 µg/mL (≈ 2.48 µM); in the test filed under Rattus norvegicus [5] (setting [9]), 2.2 µg/mL (≈ 2.75 µM); in the test listed under Rattus norvegicus [8] (setting [9]), 2.05 µg/mL (≈ 2.57 µM). The Activity was 72.9 µg/mL in the test filed under Rattus norvegicus [3], 279.43 µg/mL in the test filed under Rattus norvegicus [4], 4.21 µg/mL in the test listed under Rattus norvegicus [6] and 29.42 µg/mL in the test filed under Rattus norvegicus [7].

For the compound `COC(=O)C(Cc1c[nH]c2ccccc12)NP1(=S)Oc2ccccc2CN1c1ccc(N2Cc3ccccc3OP2(=S)NC(Cc2c[nH]c3ccccc23)C(=O)OC)cc1` (centres undefined), the EC50 is 1.82 µg/mL (≈ 2.08 µM) in the test filed under Rattus norvegicus [1] (setting [9]), 1.39 µg/mL (≈ 1.59 µM) in the test listed under Rattus norvegicus [2] (setting [9]), 1.98 µg/mL (≈ 2.26 µM) in the test listed under Rattus norvegicus [5] (setting [9]) and 1.45 µg/mL (≈ 1.65 µM) in the test listed under Rattus norvegicus [8] (setting [9]). The Activity in the test filed under Rattus norvegicus [3] turned out to be 76.2 µg/mL; in the test listed under Rattus norvegicus [4], 280.48 µg/mL; in the test listed under Rattus norvegicus [6], 5.84 µg/mL; in the test listed under Rattus norvegicus [7] it was 30.29 µg/mL.

On to VITAMIN E [listing 1 of 2 here], for which the EC50 in the test filed under Rattus norvegicus [1] was found to be 1.22 µg/mL; in the test filed under Rattus norvegicus [2], 1.03 µg/mL; in the test filed under Rattus norvegicus [5] it was 1.48 µg/mL; in the test listed under Rattus norvegicus [8], 0.99 µg/mL.

Turning to `CCOC(=O)C(NP1(=S)Oc2ccccc2CN1c1ccc(N2Cc3ccccc3OP2(=S)NC(C(=O)OCC)c2ccccc2)cc1)c1ccccc1` (centres undefined), the EC50 is 2.57 µg/mL (≈ 3.22 µM) in the test listed under Rattus norvegicus [1] (setting [9]), 2.42 µg/mL (≈ 3.03 µM) in the test listed under Rattus norvegicus [2] (setting [9]), 2.98 µg/mL (≈ 3.73 µM) in the test listed under Rattus norvegicus [5] (setting [9]) and 2.15 µg/mL (≈ 2.69 µM) in the test listed under Rattus norvegicus [8] (setting [9]). In addition, the Activity came out at 70.5 µg/mL in the test listed under Rattus norvegicus [3], 270.32 µg/mL in the test filed under Rattus norvegicus [4], 4.12 µg/mL in the test filed under Rattus norvegicus [6] and 29.31 µg/mL in the test filed under Rattus norvegicus [7].

Turning to `O=C1O[C@H]([C@@H](O)CO)C(O)=C1O` [ASCORBIC ACID], the 50% effective concentration (EC50) in the test filed under Rattus norvegicus [1] (setting [9]) is 1.02 µg/mL (≈ 5.79 µM); in the test filed under Rattus norvegicus [2] (setting [9]) it was 0.99 µg/mL (≈ 5.62 µM); in the test listed under Rattus norvegicus [5] (setting [9]) it was 1.37 µg/mL (≈ 7.78 µM); in the test filed under Rattus norvegicus [8] (setting [9]) it was 0.98 µg/mL (≈ 5.56 µM). The values for the Activity in the test listed under Rattus norvegicus [3], in the test filed under Rattus norvegicus [4] and in the test filed under Rattus norvegicus [6] were 88.1 µg/mL, 385.46 µg/mL and 31.34 µg/mL, respectively. In addition, the outcome in the test filed under Rattus norvegicus [7] was inactive.

Take `CCOC(=O)C1c2ccccc2CN1P1(=S)Oc2ccccc2CN1c1ccc(N2Cc3ccccc3OP2(=S)N2Cc3ccccc3C2C(=O)OCC)cc1` (centres undefined): the EC50 in the test listed under Rattus norvegicus [1] (setting [9]) was 1.56 µg/mL (≈ 1.9 µM); in the test listed under Rattus norvegicus [2] (setting [9]) it was 1.55 µg/mL (≈ 1.88 µM); in the test filed under Rattus norvegicus [5] (setting [9]) it was 1.68 µg/mL (≈ 2.04 µM); in the test listed under Rattus norvegicus [8] (setting [9]), 1.49 µg/mL (≈ 1.81 µM). Besides, the Activity in the test listed under Rattus norvegicus [3] stood at 75.7 µg/mL; in the test filed under Rattus norvegicus [4], 285.58 µg/mL; in the test listed under Rattus norvegicus [6], 5.77 µg/mL; in the test listed under Rattus norvegicus [7] it was 30.59 µg/mL.

For the compound `Oc1ccccc1CNc1ccc(NCc2ccccc2O)cc1`, the EC50 was 5.02 µg/mL (≈ 15.7 µM) in the test filed under Rattus norvegicus [1] (setting [9]), 4.58 µg/mL (≈ 14.3 µM) in the test filed under Rattus norvegicus [2] (setting [9]), 6.05 µg/mL (≈ 18.9 µM) in the test listed under Rattus norvegicus [5] (setting [9]) and 5.42 µg/mL (≈ 16.9 µM) in the test listed under Rattus norvegicus [8] (setting [9]). For the same compound, the Activity is 70.7 µg/mL in the test listed under Rattus norvegicus [3], 262.55 µg/mL in the test filed under Rattus norvegicus [4], 4.8 µg/mL in the test listed under Rattus norvegicus [6] and 26.27 µg/mL in the test listed under Rattus norvegicus [7].

For the compound `COC(=O)C(Cc1c[nH]cn1)NP1(=S)Oc2ccccc2CN1c1ccc(N2Cc3ccccc3OP2(=S)NC(Cc2c[nH]cn2)C(=O)OC)cc1` (centres undefined), the EC50 was determined as 1.56 µg/mL (≈ 2 µM) in the test filed under Rattus norvegicus [1] (setting [9]), 1.4 µg/mL (≈ 1.8 µM) in the test filed under Rattus norvegicus [2] (setting [9]), 1.75 µg/mL (≈ 2.25 µM) in the test listed under Rattus norvegicus [5] (setting [9]) and 1.45 µg/mL (≈ 1.86 µM) in the test listed under Rattus norvegicus [8] (setting [9]). Moreover, the Activity is 77.2 µg/mL in the test listed under Rattus norvegicus [3], 282.28 µg/mL in the test listed under Rattus norvegicus [4], 3.66 µg/mL in the test filed under Rattus norvegicus [6] and 31.55 µg/mL in the test filed under Rattus norvegicus [7].

For the compound VITAMIN E [listing 2 of 2 here], the Activity was found to be 82.8 µg/mL in the test filed under Rattus norvegicus [3], 403 µg/mL in the test listed under Rattus norvegicus [4], 43.6 µg/mL in the test listed under Rattus norvegicus [6] and 32.3 µg/mL in the test listed under Rattus norvegicus [7].

With `COC(=O)C(C)NP1(=S)Oc2ccccc2CN1c1ccc(N2Cc3ccccc3OP2(=S)NC(C)C(=O)OC)cc1` (centres undefined), the EC50 turned out to be 4.25 µg/mL (≈ 6.57 µM) in the test filed under Rattus norvegicus [1] (setting [9]), 3.56 µg/mL (≈ 5.51 µM) in the test listed under Rattus norvegicus [2] (setting [9]), 5.28 µg/mL (≈ 8.16 µM) in the test filed under Rattus norvegicus [5] (setting [9]) and 3.5 µg/mL (≈ 5.41 µM) in the test filed under Rattus norvegicus [8] (setting [9]). In addition, the Activity turned out to be 72.2 µg/mL in the test listed under Rattus norvegicus [3], 271.27 µg/mL in the test listed under Rattus norvegicus [4], 3.56 µg/mL in the test listed under Rattus norvegicus [6] and 27.02 µg/mL in the test filed under Rattus norvegicus [7].

`COC(=O)C(NP1(=S)Oc2ccccc2CN1c1ccc(N2Cc3ccccc3OP2(=S)NC(C(=O)OC)C(C)C)cc1)C(C)C` (centres undefined): the EC50 came out at 4.1 µg/mL (≈ 5.83 µM) in the test listed under Rattus norvegicus [1] (setting [9]), 3.45 µg/mL (≈ 4.91 µM) in the test listed under Rattus norvegicus [2] (setting [9]), 4.89 µg/mL (≈ 6.96 µM) in the test listed under Rattus norvegicus [5] (setting [9]) and 3.05 µg/mL (≈ 4.34 µM) in the test listed under Rattus norvegicus [8] (setting [9]). Further, the Activity amounted to 72.3 µg/mL in the test listed under Rattus norvegicus [3], 277.59 µg/mL in the test listed under Rattus norvegicus [4], 4.73 µg/mL in the test filed under Rattus norvegicus [6] and 27.86 µg/mL in the test listed under Rattus norvegicus [7].

Take `CCCC(NP1(=S)Oc2ccccc2CN1c1ccc(N2Cc3ccccc3OP2(=S)NC(CCC)C(=O)OCC)cc1)C(=O)OCC` (centres undefined): the EC50 in the test filed under Rattus norvegicus [1] (setting [9]) worked out at 2.59 µg/mL (≈ 3.54 µM); in the test filed under Rattus norvegicus [2] (setting [9]), 2.33 µg/mL (≈ 3.19 µM); in the test listed under Rattus norvegicus [5] (setting [9]), 3.23 µg/mL (≈ 4.42 µM); in the test filed under Rattus norvegicus [8] (setting [9]), 2.5 µg/mL (≈ 3.42 µM). Moreover, the Activity in the test listed under Rattus norvegicus [3] came to 70.2 µg/mL; in the test filed under Rattus norvegicus [4], 273.32 µg/mL; in the test filed under Rattus norvegicus [6], 4.23 µg/mL; in the test listed under Rattus norvegicus [7], 28.55 µg/mL.

For `CCOC(=O)C(C)NP1(=S)Oc2ccccc2CN1c1ccc(N2Cc3ccccc3OP2(=S)NC(C)C(=O)OCC)cc1` (centres undefined), the EC50 in the test filed under Rattus norvegicus [1] (setting [9]) was 3.1 µg/mL (≈ 4.59 µM); in the test filed under Rattus norvegicus [2] (setting [9]) it was 2.98 µg/mL (≈ 4.42 µM); in the test listed under Rattus norvegicus [5] (setting [9]), 3.38 µg/mL (≈ 5.01 µM); in the test listed under Rattus norvegicus [8] (setting [9]), 2.68 µg/mL (≈ 3.97 µM). Also, the Activity in the test listed under Rattus norvegicus [3] stood at 68.9 µg/mL; in the test filed under Rattus norvegicus [4], 270.32 µg/mL; in the test listed under Rattus norvegicus [6], 4.56 µg/mL; in the test listed under Rattus norvegicus [7] it was 28.14 µg/mL.

The term EC50 denotes the concentration needed to bring the measured effect to its halfway point.
